Reference: patent US20240174662A1, “SMALL MOLECULE INHIBITORS OF SALT INDUCIBLE KINASES” (Janssen Biotech, Inc., priority 2021, published 2024)
“And” between values parts separate entries of the source, which are not always exact repeats. Equal values may be shown once.

Each compound was assayed against T1, SIK2 (Homo sapiens (Human), UniProt Q9H0K1) (assay: SIK2 Enzymatic Assay Version 2 (High ATP)). Conditions: 3 mM ATP and 200 μM HDAC5tide final, ADP-Glo Max luminescence.
Type: biochemical
How it was run: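 Run at room temperature; SIK2 enzyme at 6 nM (2× final) preincubated with compound 30 min before reaction. ADP formation detected by ADP-Glo Max (2 h reagent, 1 h detection) with luminescence read-out.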

T1 sequence (Q9H0K1 whole entry, species assumed): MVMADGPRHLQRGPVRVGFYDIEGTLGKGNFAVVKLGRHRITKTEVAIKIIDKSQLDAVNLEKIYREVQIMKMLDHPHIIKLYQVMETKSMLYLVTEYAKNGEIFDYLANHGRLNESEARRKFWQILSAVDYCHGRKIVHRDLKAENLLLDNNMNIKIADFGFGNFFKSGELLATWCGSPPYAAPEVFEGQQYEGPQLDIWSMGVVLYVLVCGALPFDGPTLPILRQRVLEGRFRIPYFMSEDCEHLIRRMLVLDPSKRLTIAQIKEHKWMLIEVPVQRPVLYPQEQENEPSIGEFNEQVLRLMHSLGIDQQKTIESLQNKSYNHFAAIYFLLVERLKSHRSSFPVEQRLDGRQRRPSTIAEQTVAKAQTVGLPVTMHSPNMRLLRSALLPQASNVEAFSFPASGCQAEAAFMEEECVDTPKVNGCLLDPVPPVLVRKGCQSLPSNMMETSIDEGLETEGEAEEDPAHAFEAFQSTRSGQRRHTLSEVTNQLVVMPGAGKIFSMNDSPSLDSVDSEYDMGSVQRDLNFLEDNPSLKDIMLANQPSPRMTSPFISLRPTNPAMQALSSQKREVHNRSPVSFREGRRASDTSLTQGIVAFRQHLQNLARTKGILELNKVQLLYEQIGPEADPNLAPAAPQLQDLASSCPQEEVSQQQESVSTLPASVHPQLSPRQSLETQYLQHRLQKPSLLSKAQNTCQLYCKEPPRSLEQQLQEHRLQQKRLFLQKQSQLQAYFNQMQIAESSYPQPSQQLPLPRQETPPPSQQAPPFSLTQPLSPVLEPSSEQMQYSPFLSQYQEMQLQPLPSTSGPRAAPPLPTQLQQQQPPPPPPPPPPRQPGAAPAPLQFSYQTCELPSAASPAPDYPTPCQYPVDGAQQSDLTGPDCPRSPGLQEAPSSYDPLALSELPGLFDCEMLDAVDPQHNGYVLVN

IC50 | Structure (SMILES)
334 nM | CN1CCO[C@H](COc2cnn(C)c2-c2ccn3nc(NC(=O)C4CC4)cc3c2)C1 [Example 487]
424 nM | CN1CC[C@@H](Oc2cnn(C)c2-c2ccn3nc(NC(=O)C4CC4)cc3c2)C1 [Example 488, N-[5-[2-methyl-4-[(3R)-1-methylpyrrolidin-3-yl]oxy-pyrazol-3-yl]pyrazolo[1,5-a]pyridin-2-yl]cyclopropanecarboxamide]
24.1 nM | Cc1onc(O[C@H]2C[C@@H]3C[C@H]2CN3)c1-c1ccn2nc(NC(=O)C3CC3)cc2c1 (single isomer, unassigned) [Example 217, N-(5-(3-(((1*S,4*S,5*R)-2-azabicyclo[2.2.1]heptan-5-yl)oxy)-5-methylisoxazol-4-yl)pyrazolo[1,5-a]pyridin-2-yl)cyclopropanecarboxamide]
2.9 nM | Cc1cc(Nc2cc3cc(-c4c(CO[C@H]5CN(C)C[C@H]5C)cnn4C)ccn3n2)nc(C)n1 [Example 367, (rac-cis)-N-(2,6-dimethylpyrimidin-4-yl)-5-[4-[(1,4-dimethylpyrrolidin-3-yl)oxymethyl]-2-methyl-pyrazol-3-yl]pyrazolo[1,5-a]pyridin-2-amine]
3.4 nM | Cc1ccc(Nc2cc3cc(-c4c(OC[C@H]5CCN5C)cnn4C)ccn3n2)nn1 [Example 39, 5-[2-methyl-4-[[(2R)-1-methylazetidin-2-yl]methoxy]pyrazol-3-yl]-N-(6-methylpyridazin-3-yl)pyrazolo[1,5-a]pyridin-2-amine]
319 nM | CN1CC[C@@H]1COc1cnn(C)c1-c1ccn2nc(NC(=O)c3cnn(C)c3)cc2c1 [Example 26, 1-methyl-N-[5-[2-methyl-4-[[(2R)-1-methylazetidin-2-yl]methoxy]pyrazol-3-yl]pyrazolo[1,5-a]pyridin-2-yl]pyrazole-4-carboxamide]
7.2 nM | Cc1cc(Nc2cc3cc(-c4c(OCC5(F)CCNC5)cnn4C(F)F)ccn3n2)nc(C)n1 (racemic) [Example 101, (RS)-5-[2-(difluoromethyl)-4-[(3-fluoropyrrolidin-3-yl)methoxy]pyrazol-3-yl]-N-(2,6-dimethylpyrimidin-4-yl)pyrazolo[1,5-a]pyridin-2-amine]
55.9 nM | Cc1ncc(Nc2cc3cc(-c4c(O[C@H]5CCN(C)C5)cnn4C)ccn3n2)nc1C [Example 349, N-(5,6-dimethylpyrazin-2-yl)-5-[2-methyl-4-[(3S)-1-methylpyrrolidin-3-yl]oxy-pyrazol-3-yl]pyrazolo[1,5-a]pyridin-2-amine]
5.2 nM | COC1(COc2noc(C)c2-c2ccn3nc(Nc4cc(C)nc(C)n4)cc3c2)CNC1 [Example 30, N-(2,6-dimethylpyrimidin-4-yl)-5-[3-[(3-methoxyazetidin-3-yl)methoxy]-5-methyl-isoxazol-4-yl]pyrazolo[1,5-a]pyridin-2-amine]
79.5 nM | CCC1(COc2cnn(C)c2-c2ccn3nc(NC(=O)C4CC4)cc3c2)CN(C)C1 [Example 408, N-[5-[4-[(3-ethyl-1-methyl-azetidin-3-yl)methoxy]-2-methyl-pyrazol-3-yl]pyrazolo[1,5-a]pyridin-2-yl]cyclopropanecarboxamide]
8.9 nM | CN1CC[C@@H]1COc1cnn(C)c1-c1ccn2nc(Nc3cnc(C(=O)NCC(C)(C)O)cn3)cc2c1 [Example 132, N-(2-hydroxy-2-methyl-propyl)-5-[[5-[2-methyl-4-[[(2R)-1-methylazetidin-2-yl]methoxy]pyrazol-3-yl]pyrazolo[1,5-a]pyridin-2-yl]amino]pyrazine-2-carboxamide]
1.4 nM | CCN1CC[C@@H]1COc1cnn(C)c1-c1ccn2nc(Nc3cnc(C(=O)OC)cn3)cc2c1 [Example 311, methyl 5-[[5-[4-[[(2R)-1-ethylazetidin-2-yl]methoxy]-2-methyl-pyrazol-3-yl]pyrazolo[1,5-a]pyridin-2-yl]amino]pyrazine-2-carboxylate]
49.5 nM | Cc1onc(O[C@@H]2CCNC3(CCC3)C2)c1-c1ccn2nc(NC(=O)C3CC3)cc2c1 (single isomer, unassigned) [Example 218, (*R)—N-[5-[3-(9-azaspiro[3.5]nonan-6-yloxy)-5-methyl-isoxazol-4-yl]pyrazolo[1,5-a]pyridin-2-yl]cyclopropanecarboxamide]
68.8 nM | CN1CC[C@H](Oc2cnn(C)c2-c2ccn3nc(Nc4cc5ccccc5nn4)cc3c2)C1 [Example 342, N-[5-[2-methyl-4-[(3S)-1-methylpyrrolidin-3-yl]oxy-pyrazol-3-yl]pyrazolo[1,5-a]pyridin-2-yl]cinnolin-3-amine]
< 0.847 nM | CCc1cc(Nc2cc3cc(-c4c(OC[C@H]5CCN5C)cnn4C)ccn3n2)nc(C)n1 [Example 145, N-(6-ethyl-2-methyl-pyrimidin-4-yl)-5-[2-methyl-4-[[(2R)-1-methylazetidin-2-yl]methoxy]pyrazol-3-yl]pyrazolo[1,5-a]pyridin-2-amine]
35.8 nM | CN1CC[C@H](Oc2cnn(C)c2-c2ccn3nc(Nc4ccc5c(n4)CCOC5)cc3c2)C1 [Example 280, N-[5-[2-methyl-4-[(3S)-1-methylpyrrolidin-3-yl]oxy-pyrazol-3-yl]pyrazolo[1,5-a]pyridin-2-yl]-7,8-dihydro-5H-pyrano[4,3-b]pyridin-2-amine]
18.1 nM | Cc1cc(Nc2cc3cc(-c4c(OC[C@H]5CCN5)cnn4C)ccn3n2)nc(C(F)(F)F)n1 [Example 273, 5-[4-[[(2R)-azetidin-2-yl]methoxy]-2-methyl-pyrazol-3-yl]-N-[6-methyl-2-(trifluoromethyl)pyrimidin-4-yl]pyrazolo[1,5-a]pyridin-2-amine]
2.9 nM | Cc1cc(Nc2cc3cc(-c4c(OCC(N)C5(C)CC5)cnn4C)ccn3n2)nc(C)n1 (stereo not shown) [Example 309, 5-[4-[2-amino-2-(1-methylcyclopropyl)ethoxy]-2-methyl-pyrazol-3-yl]-N-(2,6-dimethylpyrimidin-4-yl)pyrazolo[1,5-a]pyridin-2-amine]
32.8 nM | Cn1ncc(COC2CNC2)c1-c1ccn2nc(NC(=O)C3CC3)cc2c1 [Example 360, N-[5-[4-(azetidin-3-yloxymethyl)-2-methyl-pyrazol-3-yl]pyrazolo[1,5-a]pyridin-2-yl]cyclopropanecarboxamide]
60.5 nM and 93.2 nM | CN1CC[C@@H](COc2cnn(C)c2-c2ccn3nc(NC(=O)C4CC4)cc3c2)C1 [Example 396, N-[5-[2-methyl-4-[[(3R)-1-methylpyrrolidin-3-yl]methoxy]pyrazol-3-yl]pyrazolo[1,5-a]pyridin-2-yl]cyclopropanecarboxamide]
2.7 nM | CCN1CC[C@@H]1COc1cnn(C)c1-c1ccn2nc(Nc3cc(OC)ncn3)cc2c1 [Example 167, 5-[4-[[(2R)-1-ethylazetidin-2-yl]methoxy]-2-methyl-pyrazol-3-yl]-N-(6-methoxypyrimidin-4-yl)pyrazolo[1,5-a]pyridin-2-amine]

Structure (SMILES) | IC50
Cn1ncc(CO[C@H]2C[C@H]3COC[C@@H](C2)N3)c1-c1ccn2nc(NC(=O)C3CC3)cc2c1 [Example 183, N-[5-[2-methyl-4-[[(1S,5R)-3-oxa-9-azabicyclo[3.3.1]nonan-7-yl]oxymethyl]pyrazol-3-yl]pyrazolo[1,5-a]pyridin-2-yl]cyclopropanecarboxamide] | 11.7 nM

The compounds below were run against T1, SIK2 (assay: SIK2 Enzymatic Assay Version 1 (ADP Glo)). Conditions: 80 μM ATP and 70 μM HDAC5tide final, ADPGlo luminescence.
Type: biochemical
Method: All steps were performed at room temperature. Compounds were pre-plated onto an assay plate using an Echo acoustic dispenser (Labcyte, E550 or E555) at 20 nL per well. Enzyme prepared in Assay Buffer at 0.6 nM (2× final concentration) was added at 2 μL per well using the Multidrop Combi (Thermo Fisher-used for all additions in this assay) to the assay plate, spun for 1 min at 800-850 rpm (Allegra 6KR Beckman Coulter centrifuge), and incubated with compound for 30 minutes. Assay Buffer containing 160 μM ATP and 140 μM HDAC5tide (2× of final concentration for each substrate) was added at 2 μL per well to the assay plate and then spun as above and incubated for 4 hours.
One column of wells was dedicated to a no-peptide negative control (containing only ATP). ADPGlo Reagent (prepared and aliquoted as per manufacturer instructions) was then added at 2 μL per well, spun and incubated for 40 min. ADPGlo Detection (prepared and aliquoted as per manufacturer instructions) was added at 2 μL per well to the assay plate, which was spun and incubated for at least 30 min. The plate was then read on the Pherastar (BMG Labtech) using a luminescence read. Gain was set by the 0.1 mM concentration of ADP wells in the ADP/ATP standard curve plate generated as per manufacturer instructions.

IC50 | Structure (SMILES)
39.7 nM | Cc1oncc1-c1ccn2nc(NC(=O)C3CC3)cc2c1 [Example 486, N-[5-(5-methylisoxazol-4-yl)pyrazolo[1,5-a]pyridin-2-yl]cyclopropanecarboxamide]
12.9 nM | CN1CCO[C@H](COc2cnn(C)c2-c2ccn3nc(NC(=O)C4CC4)cc3c2)C1 [Example 487]
6.45 nM | CN1CC[C@@H](Oc2cnn(C)c2-c2ccn3nc(NC(=O)C4CC4)cc3c2)C1 [Example 488, N-[5-[2-methyl-4-[(3R)-1-methylpyrrolidin-3-yl]oxy-pyrazol-3-yl]pyrazolo[1,5-a]pyridin-2-yl]cyclopropanecarboxamide]
